# Biological target: USP30 (Homo sapiens (Human), UniProt Q70CQ3)
# Assay: USP30 biochemical IC50 assay
# Settings: fluorescence polarisation, TAMRA labelled peptide linked to ubiquitin substrate; enzyme and compound incubated 30 min at room temp; read after 2 h; read-out: IC50 range
# Experimental: USP30 Biochemical IC50 Assay
# Dilution plates were prepared at 21 times the final concentration (2100 μM for a final concentration of 100 μM) in 50% DMSO in a 96-well polypropylene V-bottom plate (Greiner #651201). A typical 8-point dilution series would be 100, 30, 10, 3, 1, 0.3, 0.1, 0.03 μM final. Reactions were performed in duplicate in black 384 well plates (small volume, Greiner 784076) in a final reaction volume of 21 μl. Either 1 μl of 50% DMSO or diluted compound was added to the plate. USP30 was diluted in reaction buffer (40 mM Tris, pH 7.5, 0.005% Tween 20, 0.5 mg/ml BSA, 5 mM beta-mercaptoethanol) to the equivalent of 0.05 μl/well and 10 μl of diluted USP30 was added to the compound. Enzyme and compound were incubated for 30 min at room temp. Reactions were initiated by the addition of 50 nM of TAMRA labelled peptide linked to ubiquitin via an iso-peptide bond as fluorescence polarisation substrate. Reactions were read immediately after addition of substrate and following a 2 h incubation at room temperature. Readings were performed on a Pherastar Plus (BMG Labtech). A Excitation 540 nm; A Emission 590 nm.
# Chain of USP30 (Q70CQ3 57-517): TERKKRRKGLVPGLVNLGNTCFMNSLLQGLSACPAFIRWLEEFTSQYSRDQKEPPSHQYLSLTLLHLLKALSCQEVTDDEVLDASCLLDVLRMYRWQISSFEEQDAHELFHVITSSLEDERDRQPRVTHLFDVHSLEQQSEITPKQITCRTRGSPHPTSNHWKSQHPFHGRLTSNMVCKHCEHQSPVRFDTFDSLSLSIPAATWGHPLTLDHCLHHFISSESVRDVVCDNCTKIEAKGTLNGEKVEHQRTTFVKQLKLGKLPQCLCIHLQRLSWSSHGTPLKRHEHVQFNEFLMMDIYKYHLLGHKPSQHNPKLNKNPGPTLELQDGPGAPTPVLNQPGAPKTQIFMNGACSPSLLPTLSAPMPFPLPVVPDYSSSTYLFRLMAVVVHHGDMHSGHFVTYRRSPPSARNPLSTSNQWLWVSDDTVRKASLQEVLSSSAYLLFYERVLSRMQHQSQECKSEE
row,Structure (SMILES),IC50
1,"COc1cccc(-c2cc(NC(=O)C[C@@H]3CCN(C#N)C3)on2)c1 [Example 37, (S)—N-(3-(3-Methoxyphenyl)isoxazol-5-yl)-2-(1-cyanopyrrolidin-3-yl)acetamide]",100 to 1000 nM
2,"COc1ccc(C2CN(C(=O)C[C@@H]3CCN(C#N)C3)C2)cc1 [Example 38, (S)-3-(2-(3-(4-Methoxyphenyl)azetidin-1-yl)-2-oxoethyl)pyrrolidine-1-carbonitrile]",10 to 100 nM
3,"COc1ccc(C2CN(C(=O)C[C@@H]3CCN(C#N)C3)C2)cc1-c1ccn[nH]1 [Example 39, (S)-3-(2-(3-(4-Methoxy-3-(1H-pyrazol-5-yl)phenyl)azetidin-1-yl)-2-oxoethyl)pyrrolidine-1-carbonitrile]",10 to 100 nM
4,"COc1ccc(C2CN(C(=O)C[C@@H]3CCN(C#N)C3)C2)cc1-c1ccnn1C [Example 40, (S)-3-(2-(3-(4-Methoxy-3-(1-methyl-1H-pyrazol-5-yl)phenyl)azetidin-1-yl)-2-oxoethyl)-pyrrolidine-1-carbonitrile]",10 to 100 nM
5,"N#CN1CCC(CC(=O)Nc2nnc(-c3ccccc3)s2)C1 (stereo not drawn) [Example 41, 2-(1-cyanopyrrolidin-3-yl)-N-(5-phenyl-1,3,4-thiadiazol-2-yl)acetamide]",100 to 1000 nM
6,"N#CN1CC[C@@H](CC(=O)Nc2cc(-c3cccc(Cl)c3)no2)C1 [Example 42, (S)-N-(3-(3-chlorophenyl)isoxazol-5-yl)-2-(1-cyanopyrrolidin-3-yl)acetamide]",10 to 100 nM
7,"COc1cccc(-c2cc(NC(=O)C[C@H]3CCN(C#N)C3)on2)c1 [Example 43, (R)-2-(1-cyanopyrrolidin-3-yl)-N-(3-(3-methoxyphenyl)isoxazol-5-yl)acetamide]",10 to 100 nM
8,"N#CN1CCC(CC(=O)Nc2cc3ccccn3n2)C1 (stereo not drawn) [Example 44, 2-(1-cyanopyrrolidin-3-yl)-N-(pyrazolo[1,5-a]pyridin-2-yl)acetamide]",1000 to 10000 nM
9,"N#CN1CCC(CC(=O)Nc2cc(C(F)(F)F)ccn2)C1 (stereo not drawn) [Example 45, 2-(1-cyanopyrrolidin-3-yl)-N-(4-(trifluoromethyl)pyridin-2-yl)acetamide]",100 to 1000 nM
10,"N#Cc1ccc(NC(=O)CC2CCN(C#N)C2)nc1 (stereo not drawn) [Example 46, N-(5-cyanopyridin-2-yl)-2-(1-cyanopyrrolidin-3-yl)acetamide]",1000 to 10000 nM
11,"N#CN1CCC(CC(=O)NC2CN(c3ccccn3)C2)C1 (stereo not drawn) [Example 47, 2-(1-cyanopyrrolidin-3-yl)-N-(1-(pyridin-2-yl)azetidin-3-yl)acetamide]",100 to 1000 nM
12,"N#CN1CC[C@@H](CC(=O)Nc2nnc(-c3cccc(Cl)c3)o2)C1 [Example 48, (S)-N-(5-(3-chlorophenyl)-1,3,4-oxadiazol-2-yl)-2-(1-cyanopyrrolidin-3-yl)acetamide]",100 to 1000 nM
13,"N#Cc1cccc(-c2nnc(NC(=O)CC3CCN(C#N)C3)o2)c1 (stereo not drawn) [Example 49, N-(5-(3-cyanophenyl)-1,3,4-oxadiazol-2-yl)-2-(1-cyanopyrrolidin-3-yl)acetamide]",100 to 1000 nM
14,"C[C@H](C(=O)Nc1cc(-c2cccc(Cl)c2)no1)[C@@H]1CCN(C#N)C1 [Example 50, (S)-N-(3-(3-chlorophenyl)isoxazol-5-yl)-2-((S)-1-cyanopyrrolidin-3-yl)propanamide]",1 to 10 nM
15,"N#Cc1cccc(-c2cc(NC(=O)C[C@H]3CCN(C#N)C3)on2)c1 [Example 51, (R)-N-(3-(3-cyanophenyl)isoxazol-5-yl)-2-(1-cyanopyrrolidin-3-yl)acetamide]",1 to 10 nM
16,"N#Cc1ccc(C2CN(C(=O)C[C@@H]3CCN(C#N)C3)C2)cc1 [Example 52, (S)-3-(2-(3-(4-cyanophenyl)azetidin-1-yl)-2-oxoethyl)pyrrolidine-1-carbonitrile]",100 to 1000 nM
17,"C[C@@H](C(=O)Nc1cc(-c2cccc(Cl)c2)no1)[C@@H]1CCN(C#N)C1 [Example 53, (R)-N-(3-(3-chlorophenyl)isoxazol-5-yl)-2-((S)-1-cyanopyrrolidin-3-yl)propanamide]",10 to 100 nM
18,"N#CN1CC[C@H](CC(=O)Nc2cc(-c3cccc(OC(F)(F)F)c3)no2)C1 [Example 54, (R)-2-(1-cyanopyrrolidin-3-yl)-N-(3-(3-(trifluoromethoxy)phenyl)isoxazol-5-yl)acetamide]",1 to 10 nM
19,"N#Cc1cccc(-c2cc(NC(=O)C[C@H]3CCN(C#N)C3)no2)c1 [Example 55, (R)-N-(5-(3-cyanophenyl)isoxazol-3-yl)-2-(1-cyanopyrrolidin-3-yl)acetamide]",1 to 10 nM
20,"N#Cc1cccc(C2CN(C(=O)C[C@@H]3CCN(C#N)C3)C2)c1 [Example 56, (S)-3-(2-(3-(3-cyanophenyl)azetidin-1-yl)-2-oxoethyl)pyrrolidine-1-carbonitrile]",100 to 1000 nM
21,"N#Cc1ccc(C2CN(C(=O)C[C@@H]3CCN(C#N)C3)C2)nc1 [Example 57, (S)-6-(1-(2-(1-cyanopyrrolidin-3-yl)acetyl)azetidin-3-yl)nicotinonitrile]",100 to 1000 nM
22,"N#CN1CCC(CC(=O)N2CC(c3ccc(O)cc3)C2)C1 (stereo not drawn) [Example 58, 3-(2-(3-(4-hydroxyphenyl)azetidin-1-yl)-2-oxoethyl)pyrrolidine-1-carbonitrile]",100 to 1000 nM
23,"Cc1cc(C2CN(C(=O)C[C@@H]3CCN(C#N)C3)C2)ccc1C#N [Example 59, (S)-3-(2-(3-(4-cyano-3-methylphenyl)azetidin-1-yl)-2-oxoethyl)pyrrolidine-1-carbonitrile]",10 to 100 nM
24,"CN(C)C(=O)c1ccc(C2CN(C(=O)C[C@@H]3CCN(C#N)C3)C2)cc1 [Example 60, (S)-4-(1-(2-(1-cyanopyrrolidin-3-yl)acetyl)azetidin-3-yl)-N,N-dimethylbenzamide]",100 to 1000 nM
25,"N#CN1CC[C@H](CC(=O)Nc2nnc(-c3ccccc3)s2)C1 [Example 63, (R)-2-(1-cyanopyrrolidin-3-yl)-N-(5-phenyl-1,3,4-thiadiazol-2-yl)acetamide]",1000 to 10000 nM
26,"N#CN1CC[C@@H](CC(=O)Nc2nnc(-c3ccccc3)s2)C1 [Example 64, (S)-2-(1-cyanopyrrolidin-3-yl)-N-(5-phenyl-1,3,4-thiadiazol-2-yl)acetamide]",100 to 1000 nM
27,"CC(C)Oc1ccc(C2CN(C(=O)C[C@@H]3CCN(C#N)C3)C2)nc1 [Example 65, (S)-3-(2-(3-(5-isopropoxypyridin-2-yl)azetidin-1-yl)-2-oxoethyl)pyrrolidine-1-carbonitrile]",100 to 1000 nM
28,"COCCOc1ccc(C2CN(C(=O)C[C@@H]3CCN(C#N)C3)C2)cc1 [Example 66, (S)-3-(2-(3-(4-(2-methoxyethoxy)phenyl)azetidin-1-yl)-2-oxoethyl)pyrrolidine-1-carbonitrile]",1000 to 10000 nM
29,"COc1ccc(C2CN(C(=O)C[C@@H]3CCN(C#N)C3)C2)cc1-c1cnn(C)c1 [Example 67, (S)-3-(2-(3-(4-methoxy-3-(1-methyl-1H-pyrazol-4-yl)phenyl)azetidin-1-yl)-2-oxoethyl)pyrrolidine-1-carbonitrile]",10 to 100 nM
30,"COc1cccc(C2CN(C(=O)C[C@@H]3CCN(C#N)C3)C2)c1F [Example 68, (S)-3-(2-(3-(2-fluoro-3-methoxyphenyl)azetidin-1-yl)-2-oxoethyl)pyrrolidine-1-carbonitrile]",10 to 100 nM
